# According to ChEMBL document CHEMBL5030532, “Synthesis and Evaluation of Galloyl Conjugates of Flavanones as BMP-2 Upregulators with Promising Bone Anabolic and Fracture Healing Properties” (J Med Chem, 2021):
# The source made the active and inactive calls. No cut-off for these calls is given here.
# Columns and labels:
# Calvarial osteoblast [1] = experiment: Induction of osteoblast differentiation in rat Calvaria osteoblast cells measured assessed as increase in alkaline phosphatase activity at 0.000001 to 1 uM incubated for 48 hrs using PNPP as substrate; type: functional, cell-based; details: dose lower 1e-06 µM, dose upper 1.0 µM
# Calvarial osteoblast [2] = experiment: Induction of osteoblast differentiation in rat Calvaria osteoblast cells measured assessed as increase in alkaline phosphatase activity at 10 pM incubated for 48 hrs using PNPP as substrate; type: functional, cell-based
# Calvarial osteoblast [3] = experiment: Induction of osteoblast differentiation in rat Calvaria osteoblast cells measured assessed as increase in alkaline phosphatase activity at 1 pM incubated for 48 hrs using PNPP as substrate; type: functional, cell-based
# [4] = Induction of osteogeneis in rat calvarial osteoblast cells assessed as fold upregulation of ALP gene expression at 100 pM measured after 48 hrs by qPCR analysis relative to control; type: functional
# [5] = Induction of osteogeneis in rat calvarial osteoblast cells assessed as fold upregulation of RUNX2 gene expression at 1 pM measured after 48 hrs by qPCR analysis relative to control; type: functional
# Calvarial osteoblast [6] = experiment: Induction of mineralization in rat Calvarial osteoblast cells measured at 100 pM measured for 14 days by Cetylpyridinium chloride method; type: functional, tissue-based; details: time 14.0 day
# [7] = Induction of osteogeneis in rat calvarial osteoblast cells assessed as fold upregulation of Col1 gene expression at 100 pM measured after 48 hrs by qPCR analysis relative to control; type: functional
# Calvarial osteoblast [8] = experiment: Induction of osteoblast differentiation in rat Calvaria osteoblast cells measured assessed as maximal increase in alkaline phosphatase activity incubated for 48 hrs using PNPP as substrate; type: functional
# [9] = Induction of osteogeneis in rat calvarial osteoblast cells assessed as fold upregulation of BMP-2 gene expression at 100 pM measured after 48 hrs by qPCR analysis relative to control; type: functional
# Calvarial osteoblast [10] = experiment: Cytotoxicity against rat Calvarial osteoblast cells assessed as viable cells measured at 0.000001 to 1 uM measure after 48 hrs by cell viability assay; type: cell-based; details: dose lower 1e-06 µM, dose upper 1 µM
# Rattus norvegicus [11] = experiment: Induction of new bone formation in rat pups assessed as mineralized bone formation in calvaria by measuring bone formation rate at 10 mg/kg, sc measured after 5 days by fluorescent microscopy by relative to control; type: functional, organism-based; details: time 5.0 day
# Rattus norvegicus [12] = experiment: In vivo induction of osteogenic activity in neonatal rat pups assessed as fold increase in BMP-2 gene expression in calvarial tissue at 5 mg/kg, sc administered for 6 days; type: functional, organism-based; details: Calvaria, time 6.0 day
# [13] = Stability of the compound in simulated intestinal acid at pH 6.5 measured after 1 hr by LC-MS/MS analysis; type: ADME; details: read-out: Stability
# [14] = Clearance in Sprague-Dawley rat at 10 mg/kg, po by LC-MS/MS analysis; type: ADME, organism-based; details: in vivo
# Calvarial osteoblast [15] = experiment: Induction of osteoblast differentiation in rat Calvaria osteoblast cells measured assessed as increase in alkaline phosphatase activity at 0.000001 to 1 uM incubated for 48 hrs using PNPP as substrate in presence of noggin; type: functional, cell-based; details: dose lower 1e-06 µM, dose upper 1.0 µM
# Rattus norvegicus [16] = experiment: Induction of bone regeneration in adult rat femur osteotomy model assessed as restoration of bone morphology measured at 5 mg/kg, po for 14 days by toluidine blue staining based analysis; type: functional, organism-based; details: time 14.0 day
# [17] = MRT in Sprague-Dawley rat at 10 mg/kg, po by LC-MS/MS analysis; type: ADME, organism-based; details: in vivo
# [18] = Volume of distribution in Sprague-Dawley rat at 5 mg/kg, po by LC-MS/MS analysis; type: ADME, organism-based; details: in vivo
# [19] = Induction of osteogeneis in rat calvarial osteoblast cells assessed as fold upregulation of BMP-2 gene expression at 1 pM measured after 48 hrs by qPCR analysis relative to control; type: functional
# [20] = In vivo induction of osteogenic activity in neonatal rat pups assessed as fold increase in RUNX2 gene expression in calvarial tissue at 5 mg/kg, sc administered for 6 days; type: functional, Calvaria; details: time 6 day
# [21] = Half life in Sprague-Dawley rat at 5 mg/kg, po by LC-MS/MS analysis; type: ADME, organism-based; details: in vivo
# Calvarial osteoblast [22] = experiment: Induction of osteogenesis in rat calvarial osteoblast cells assessed as upregulation of BMP-2 protein expression at 1 pM measured after 48 hrs by immunoblotting analysis; type: functional, cell-based
# Rattus norvegicus [23] = experiment: Induction of new bone formation in rat pups assessed as mineral apposition rate in calvaria at 5 mg/kg, sc measured after 5 days by fluorescent microscopy by relative to control; type: functional, organism-based; details: time 5.0 day
# [24] = Stability of the compound in simulated gastric acid at pH 1.2 measured after 1 hr by LC-MS/MS analysis; type: ADME; details: read-out: Stability
# Rattus norvegicus [25] = experiment: Induction of bone regeneration in adult rat femur osteotomy model assessed as increase in trabecular number measured at 5 mg/kg, po for 14 days by microCT analysis relative to control; type: functional, organism-based; details: time 14.0 day
# [26] = Stability in rat plasma after 1 hr incubation by LC-MS/MS analysis; type: ADME, cell-free; details: read-out: Stability
# Rattus norvegicus [27] = experiment: Induction of bone regeneration in adult rat femur osteotomy model assessed as increase in bone volume/tissue volume fraction measured at 5 mg/kg, po for 14 days by microCT analysis relative to control; type: functional; details: time 14 day
# Rattus norvegicus [28] = experiment: Induction of new bone formation in rat pups assessed as mineralized bone formation in calvaria by measuring increase in calvarial thickness at 5 mg/kg, sc measured after 5 days by Hematoxylin and eosin staining based quantitative histology; type: functional, organism-based; details: time 5.0 day
# [29] = In vivo induction of osteogenic activity in neonatal rat pups assessed as fold increase in OCN gene expression in calvarial tissue at 5 mg/kg, sc administered for 6 days; type: functional, Calvaria; details: time 6 day
# Rattus norvegicus [30] = experiment: Induction of bone regeneration in adult rat femur osteotomy model assessed as increase in trabecular thickness measured at 5 mg/kg, po for 14 days by microCT analysis relative to control; type: functional, organism-based; details: time 14.0 day
# Calvarial osteoblast [31] = experiment: Induction of rat Calvarial osteoblast cell proliferation at 0.000001 to 1 uM measured after 48 hrs by MTT assay; type: functional, tissue-based; details: dose lower 1e-06 µM, dose upper 1.0 µM
# [32] = Induction of bone regeneration in adult rat femur osteotomy model assessed as fold increase in Col1 gene expression in fracture calluses measured at 5 mg/kg, po for 14 days by […] relative to control; type: functional; details: time 14 day
# Calvarial osteoblast [33] = experiment: Induction of mineralization in rat Calvarial osteoblast cells measured at 1 pM measured for 14 days by Cetylpyridinium chloride method; type: functional, tissue-based; details: time 14.0 day
# [34] = Cmax in Sprague-Dawley rat at 5 mg/kg, po by LC-MS/MS analysis; type: ADME, organism-based; parameters: route oral, dose 5 mg/kg; details: in vivo
# [35] = MRT in Sprague-Dawley rat at 5 mg/kg, po by LC-MS/MS analysis; type: ADME, organism-based; details: in vivo
# Rattus norvegicus [36] = experiment: Induction of new bone formation in rat pups assessed as mineralized bone formation in calvaria by measuring bone formation rate at 5 mg/kg, sc measured after 5 days by fluorescent microscopy by relative to control; type: functional, organism-based; details: time 5.0 day
# [37] = Induction of osteogeneis in rat calvarial osteoblast cells assessed as fold upregulation of ALP gene expression at 1 pM measured after 48 hrs by qPCR analysis relative to control; type: functional
# [38] = Volume of distribution in Sprague-Dawley rat at 10 mg/kg, po by LC-MS/MS analysis; type: ADME, organism-based; details: in vivo
# [39] = Induction of bone regeneration in adult rat femur osteotomy model assessed as fold increase in OCN expression in fracture calluses measured at 5 mg/kg, po for 14 days by […] relative to control; type: functional; details: time 14 day
# [40] = Half life in Sprague-Dawley rat at 10 mg/kg, po by LC-MS/MS analysis; type: ADME, organism-based; details: in vivo
# Calvarial osteoblast [41] = experiment: Induction of osteogeneis in rat calvarial osteoblast cells assessed as upregulation of RUNX2 protein expression at 1 pM measured after 48 hrs by immunoblotting analysis; type: functional, tissue-based
# Rattus norvegicus [42] = experiment: Induction of bone regeneration in adult rat femur osteotomy model assessed as increase in calcein labeled callus measured at 5 mg/kg, po for 14 days by calcein labeling study relative to control; type: functional; details: time 14 day
# [43] = AUC in Sprague-Dawley rat at 10 mg/kg, po by LC-MS/MS analysis; type: ADME, organism-based; parameters: dose 10 mg/kg; details: in vivo
# [44] = Induction of osteogeneis in rat calvarial osteoblast cells assessed as fold upregulation of Col1 gene expression at 1 pM measured after 48 hrs by qPCR analysis relative to control; type: functional
# [45] = Stability in rat liver microsomes after 1 hr incubation by LC-MS/MS analysis; type: ADME, Microsome
# [46] = Clearance in Sprague-Dawley rat at 5 mg/kg, po by LC-MS/MS analysis; type: ADME, organism-based; details: in vivo
# [47] = In vivo induction of osteogenic activity in neonatal rat pups assessed as fold increase in OCN gene expression in calvarial tissue at 10 mg/kg, sc administered for 6 days; type: functional, Calvaria; details: time 6 day
# [48] = AUC in Sprague-Dawley rat at 5 mg/kg, po by LC-MS/MS analysis; type: ADME, organism-based; parameters: dose 5 mg/kg; details: in vivo
# [49] = Cmax in Sprague-Dawley rat at 10 mg/kg, po by LC-MS/MS analysis; type: ADME, organism-based; parameters: route oral, dose 10 mg/kg; details: in vivo
compound,measurement,setting,value
COc1cccc([C@@H]2CC(=O)c3cc(NC(=O)c4cc(OC)c(OC)c(OC)c4)ccc3O2)c1,Activity,Calvarial osteoblast [1],Active
COc1cc(C(=O)O)cc(OC)c1OC,Activity,Calvarial osteoblast [2],Active
same,Activity,Calvarial osteoblast [3],Active
COc1cc(C(=O)Nc2ccc3c(c2)C(=O)CC(c2ccccc2)O3)cc(OC)c1OC (stereo unspecified),fold change (FC),[4],1.3
same,fold change (FC),[5],2
same,Activity,Calvarial osteoblast [6],Active
same,fold change (FC),[7],1.8
same,ECmax,Calvarial osteoblast [8],10 pM
same,fold change (FC),[9],1.9
same,Activity,Calvarial osteoblast [10],Non-Toxic
COc1cccc(C2CC(=O)c3cc(NC(=O)c4cc(OC)c(OC)c(OC)c4)ccc3O2)c1 (racemic),Activity,Rattus norvegicus [11],Active
same,Activity,Rattus norvegicus [12],Dose-Dependent Effect
same,remaining at 1 h,[13],88%
same,fold change (FC),[5],3.7
same,Activity,Calvarial osteoblast [2],Active
same,CL/F,[14],25.7 mL/min/kg
same,Activity,Calvarial osteoblast [15],inactive
same,Activity,Rattus norvegicus [16],Active
same,MRT,[17],9.17 h
same,Vdss,[18],8.42 L/kg
same,fold change (FC),[19],4.4
same,fold change (FC),[20],2
same,half-life,[21],5.6 h
same,Activity,Calvarial osteoblast [22],Active
same,Activity,Rattus norvegicus [23],inactive
same,remaining at 1 h,[24],69%
same,Activity,Rattus norvegicus [25],Active
same,remaining at 1 h,[26],89%
same,Activity,Rattus norvegicus [27],44.3%
same,Activity,Rattus norvegicus [28],Active
same,fold change (FC),[29],18
same,Activity,Rattus norvegicus [30],Active
same,Activity,Calvarial osteoblast [31],Toxic
same,fold change (FC),[32],2.5
same,ECmax,Calvarial osteoblast [8],1000 pM
same,Activity,Calvarial osteoblast [33],Active
same,Cmax,[34],736 ng/mL
same,MRT,[35],7.68 h
same,Activity,Rattus norvegicus [36],Active
same,fold change (FC),[37],5.5
same,Vdss,[38],12.99 L/kg
same,fold change (FC),[39],2.2
same,half-life,[40],5.85 h
same,Activity,Calvarial osteoblast [10],Non-Toxic
same,Activity,Calvarial osteoblast [41],Active
same,Activity,Rattus norvegicus [42],130%
same,AUC,[43],6530 ng·h/mL
same,fold change (FC),[44],2.9
same,Stability,[45],Stable
same,CL/F,[46],17.3 mL/min/kg
same,fold change (FC),[47],10
same,AUC,[48],4820 ng·h/mL
same,Cmax,[49],858 ng/mL
same,Activity,Calvarial osteoblast [3],Active
COc1cccc(C2CC(=O)c3cc([N+](=O)[O-])ccc3O2)c1 (stereo unspecified),Activity,Calvarial osteoblast [2],Active
same,Activity,Calvarial osteoblast [3],Active
